Results published in patent US11707462B2, “Checkpoint kinase 1 (CHK1) inhibitors and uses thereof” (Boundless Bio, Inc., priority 2021, dated 2023).

Assays:
[1] = target: T1, Full-length human Chk1 protein (Homo sapiens, UniProt O14757); assay: Kinase HTRF biochemical assay (HTRF KinEASE), Chk1 enzyme activity; conditions: full-length human Chk1, ATP 1 mM, 60 minutes at room temperature
T1 construct: purchased Carna Biosciences, Inc. 02-117
T1 sequence (O14757 1-476): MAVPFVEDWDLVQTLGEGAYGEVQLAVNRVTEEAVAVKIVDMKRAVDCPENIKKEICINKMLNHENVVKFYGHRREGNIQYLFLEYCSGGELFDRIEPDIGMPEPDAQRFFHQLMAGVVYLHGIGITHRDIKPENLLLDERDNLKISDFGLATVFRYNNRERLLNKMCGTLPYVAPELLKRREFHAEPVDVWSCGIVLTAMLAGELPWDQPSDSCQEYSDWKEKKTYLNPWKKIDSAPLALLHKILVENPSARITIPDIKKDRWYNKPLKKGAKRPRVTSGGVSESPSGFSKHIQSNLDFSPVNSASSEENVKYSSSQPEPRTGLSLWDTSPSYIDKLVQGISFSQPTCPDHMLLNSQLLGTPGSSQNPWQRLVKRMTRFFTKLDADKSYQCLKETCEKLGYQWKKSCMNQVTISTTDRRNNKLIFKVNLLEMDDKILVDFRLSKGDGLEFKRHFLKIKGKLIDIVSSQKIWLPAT
Outline: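 Full-length human Chk1 (0.012 ng/μL) in buffer with 5 mM MgCl2 and 1 mM DTT, preincubated with compound 10 min at room temperature; reaction with 120 nM biotinylated STK substrate 1 and 1 mM ATP for 60 min at room temperature. HTRF detection via cryptate antibody/streptavidin-XL665; IC50 from 10-point duplicate curves.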

[2] = system: p-CHK1 (Ser345); assay: AlphaLISA SureFire Ultra p-CHK1 (Ser345) cellular assay in HT29 cells; type: cell-based
Outline: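 HT29 cells treated with compounds over a 10-point, 3-fold dilution series for 16 h at 37° C., then lysed; p-CHK1 (Ser345) in lysates measured by AlphaLISA SureFire Ultra (acceptor and donor steps 1 h each at room temperature). IC50 from dose-response curve fits.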

[3] = Homo sapiens, HT-29, 16 h at 37° C.

Structure (SMILES) | IC50 [1] [nM] | IC50 [2, 3] [nM] | IC50 ([2]; 16 h at 37° C.) [nM]
N#Cc1cnc(Nc2cc(-c3ncccc3O[C@@H]3CC[C@H](N)C3)[nH]n2)cn1 [Example 1-63, 5-((5-(3-(((1R,3S)-3-aminocyclopentyl)oxy)pyridin-2-yl)-1H-pyrazol-3-yl)amino)pyrazine-2-carbonitrile] | 10 to 100 | 100 to 500 | 
N#Cc1cnc(Nc2cc(-c3ncccc3O[C@@H]3CC[C@@H](N)C3)[nH]n2)cn1 [Example 1-58, 5-((5-(3-(((1R,3R)-3-aminocyclopentyl)oxy)pyridin-2-yl)-1H-pyrazol-3-yl)amino)pyrazine-2-carbonitrile] | ≤ 10 | ≤ 50 | 
CN[C@@H]1CC[C@@H](Oc2ccccc2-c2cc(Nc3cnc(C#N)cn3)n[nH]2)C1 [Example 1-42, 5-((5-(2-(((1R,3R)-3-(methylamino)cyclopentyl)oxy)phenyl)-1H-pyrazol-3-yl)amino)pyrazine-2-carbonitrile] | 10 to 100 | 50 to 100 | 
COc1c(F)ccc(O[C@@H]2CC[C@H](N)C2)c1-c1cc(Nc2cnc(C#N)cn2)n[nH]1 [Example 1-26, 5-((5-(6-(((1R,3S)-3-aminocyclopentyl)oxy)-3-fluoro-2-methoxyphenyl)-1H-pyrazol-3-yl)amino)pyrazine-2-carbonitrile] | 10 to 100 | 50 to 100 | 
CCOc1cccc(O[C@@H]2CC[C@H](N)C2)c1-c1cc(Nc2cnc(C#N)cn2)n[nH]1 [Example 1-23, 5-((5-(2-(((1R,3S)-3-aminocyclopentyl)oxy)-6-ethoxyphenyl)-1H-pyrazol-3-yl)amino)pyazine-2-carbonitrile] | 10 to 100 | 100 to 500 | 
COc1c(F)ccc(O[C@H]2CC[C@H](N)CC2)c1-c1cc(Nc2cnc(C#N)cn2)n[nH]1 [Example 1-20, 5-((5-(6-(((1r,4r)-4-aminocyclohexyl)oxy)-3-fluoro-2-methoxyphenyl)-1H-pyrazol-3-yl)amino)pyrazine-2-carbonitrile] | 10 to 100 | 100 to 500 | 
N#Cc1cnc(Nc2cc(-c3c(OCC4CC4)cccc3O[C@H]3C[C@H](N)C3)[nH]n2)cn1 [Example 1-32, 5-((5-(2-((1r,3r)-3-aminocyclobutoxy)-6-(cyclopropylmethoxy)phenyl)-1H-pyrazol-3-yl)amino)pyrazine-2-carbonitrile] | 10 to 100 | 500 to 1000 | 
Cc1ccc(O[C@@H]2CC[C@H](N)C2)c(-c2cc(Nc3cnc(C#N)cn3)n[nH]2)n1 [Example 1-57] | ≤ 10 | 50 to 100 | 
COc1cc(Cl)cc(O[C@@H]2CC[C@H](N)C2)c1-c1cc(Nc2cnc(C#N)cn2)n[nH]1 [Example 1-29, 5-((5-(2-(((1R,3S)-3-aminocyclopentyl)oxy)-4-chloro-6-methoxyphenyl)-1H-pyrazol-3-yl)amino)pyrazine-2-carbonitrile] | ≤ 10 | 100 to 500 | 
Cc1ccc(O[C@H]2C[C@H](N)C2)c(-c2cc(Nc3cnc(C#N)cn3)n[nH]2)n1 [Example 1-62, 5-((5-(3-((1r,3r)-3-aminocyclobutoxy)-6-methylpyridin-2-yl)-1H-pyrazol-3-yl)amino)pyrazine-2-carbonitrile] | 10 to 100 | 100 to 500 | 
COc1cccc(O[C@@H]2CC[C@H](N)C2)c1-c1cc(Nc2cnc(C#N)cn2)n[nH]1 [Example 1-7, 5-((5-(2-(((1R,3S)-3-aminocyclopentyl)oxy)-6-methoxyphenyl)-1H-pyrazol-3-yl)amino)pyrazine-2-carbonitrile] | ≤ 10 | ≤ 50 | 
Cc1ccc(O[C@H]2CC[C@H](N)CC2)c(-c2cc(Nc3cnc(C#N)cn3)n[nH]2)n1 [Example 1-56, 5-((5-(3-(((1r,4r)-4-aminocyclohexyl)oxy)-6-methylpyridin-2-yl)-1H-pyrazol-3-yl)amino)pyrazine-2-carbonitrile] | ≤ 10 | 100 to 500 | 
CN[C@H]1C[C@H](Oc2cccc(OC)c2-c2cc(Nc3cnc(C#N)cn3)n[nH]2)C1 [Example 1-16, 5-((5-(2-methoxy-6-((1r,3r)-3-(methylamino)cyclobutoxy)phenyl)-1H-pyrazol-3-yl)amino)pyrazine-2-carbonitrile] | 10 to 100 | ≤ 50 | 
N#Cc1cnc(Nc2cc(-c3c(F)cccc3O[C@@H]3CC[C@H]3N)[nH]n2)cn1 [Example 3-33, 5-((5-(2-((1R,2R)-2-aminocyclobutoxy)-6-fluorophenyl)-1H-pyrazol-3-yl)amino)pyrazine-2-carbonitrile] | 10 to 100 | 50 to 100 | 

The remaining lines, values ahead:

IC50 [1] [nM] | IC50 [2, 3] [nM] | IC50 ([2]; 16 h at 37° C.) [nM] | Structure (SMILES)
100 to 500 | > 1000 |  | N#Cc1cnc(Nc2cc(-c3cccc(F)c3O[C@@H]3CC[C@H](N)C3)[nH]n2)cn1 [Example 3-13, 5-((5-(2-(((1R,3S)-3-aminocyclopentyl)oxy)-3-fluorophenyl)-1H-pyrazol-3-yl)amino)pyrazine-2-carbonitrile]
≤ 10 | ≤ 50 |  | COc1cccc(O[C@@H]2CCCC[C@H](N)C2)c1-c1cc(Nc2cnc(C#N)cn2)n[nH]1 [Example 3-8, 5-((5-(2-(((1R,3S)-3-aminocycloheptyl)oxy)-6-methoxyphenyl)-1H-pyrazol-3-yl)amino)pyrazine-2-carbonitrile]
10 to 100 | 100 to 500 |  | Cc1ccc(O[C@@H]2CC[C@H](N)C2)c(-c2cc(Nc3cnc(C#N)cn3)n[nH]2)c1F [Example 3-16, 5-((5-(6-(((1R,3S)-3-aminocyclopentyl)oxy)-2-fluoro-3-methylphenyl)-1H-pyrazol-3-yl)amino)pyrazine-2-carbonitrile]
≤ 10 | 50 to 100 |  | CCCc1ccc(O[C@@H]2CC[C@H](N)C2)c(-c2cc(Nc3cnc(C#N)cn3)n[nH]2)n1 [Example 3-47, 5-((5-(3-(((1R,3S)-3-aminocyclopentyl)oxy)-6-propylpyridin-2-yl)-1H-pyrazol-3-yl)amino)pyrazine-2-carbonitrile]
≤ 10 | ≤ 50 |  | [2H]C([2H])([2H])Oc1cccc(O[C@@H]2CC[C@H](N)C2)c1-c1cc(Nc2cnc(C#N)cn2)n[nH]1 [Example 3-15, 5-((5-(2-(((1R,3S)-3-aminocyclopentyl)oxy)-6-(methoxy-d3)phenyl)-1H-pyrazol-3-yl)amino)pyrazine-2-carbonitrile]
≤ 10 | 100 to 500 |  | N#Cc1cnc(Nc2cc(-c3c(O[C@@H]4CC[C@@H](N)C4)ccc(Cl)c3F)[nH]n2)cn1 [Example 3-29, 5-((5-(6-(((1R,3R)-3-aminocyclopentyl)oxy)-3-chloro-2-fluorophenyl)-1H-pyrazol-3-yl)amino)pyrazine-2-carbonitrile]
10 to 100 | 500 to 1000 |  | COc1c(Cl)ccc(O[C@@H]2CC[C@H](N)C2)c1-c1cc(Nc2cnc(C#N)cn2)n[nH]1 [Example 4-2, 5-((5-(6-(((1R,3S)-3-aminocyclopentyl)oxy)-3-chloro-2-methoxyphenyl)-1H-pyrazol-3-yl)amino)pyrazine-2-carbonitrile]
100 to 500 | 500 to 1000 |  | COc1c(C)ccc(O[C@@H]2CC[C@H](N)C2)c1-c1cc(Nc2cnc(C#N)cn2)n[nH]1 [Example 4-1, 5-((5-(6-(((1R,3S)-3-aminocyclopentyl)oxy)-2-methoxy-3-methylphenyl)-1H-pyrazol-3-yl)amino)pyrazine-2-carbonitrile]
≤ 10 | 50 to 100 |  | CC(C)c1ccc(O[C@@H]2CC[C@H](N)C2)c(-c2cc(Nc3cnc(C#N)cn3)n[nH]2)n1 [Example 3-46, 5-((5-(3-(((1R,3S)-3-aminocyclopentyl)oxy)-6-isopropylpyridin-2-yl)-1H-pyrazol-3-yl)amino)pyrazine-2-carbonitrile]
≤ 10 | ≤ 50 |  | COc1cccc(O[C@H]2CCCC[C@H](N)C2)c1-c1cc(Nc2cnc(C#N)cn2)n[nH]1 [Example 3-7, 5-((5-(2-(((1S,3S)-3-aminocycloheptyl)oxy)-6-methoxyphenyl)-1H-pyrazol-3-yl)amino)pyrazine-2-carbonitrile]
≤ 10 |  | ≤ 50 | COc1cccc(O[C@H]2CC3(C[C@@H](N)C3)C2)c1-c1cc(Nc2cnc(C#N)cn2)n[nH]1 (stereo partly drawn) [Example 3-11, 5-((5-(2-((6-aminospiro[3.3]heptan-2-yl)oxy)-6-methoxyphenyl)-1H-pyrazol-3-yl)amino)pyrazine-2-carbonitrile]
10 to 100 | 100 to 500 |  | N#Cc1cnc(Nc2cc(-c3nc(C(F)(F)F)ccc3O[C@@H]3CC[C@H](N)C3)[nH]n2)cn1 [Example 3-49, 5-((5-(3-(((1R,3S)-3-aminocyclopentyl)oxy)-6-(trifluoromethyl)pyridin-2-yl)-1H-pyrazol-3-yl)amino)pyrazine-2-carbonitrile]
≤ 10 | 50 to 100 |  | CN[C@@H]1CC[C@@H](Oc2cc(F)c(C)cc2-c2cc(Nc3cnc(C#N)cn3)n[nH]2)C1 [Example 3-21, 5-((5-(4-fluoro-5-methyl-2-(((1R,3R)-3-(methylamino)cyclopentyl)oxy)phenyl)-1H-pyrazol-3-yl)amino)pyrazine-2-carbonitrile]
